Laboratory results reported in article PMC7191901, “Hybrid inhibitors of DNA and HDACs remarkably enhance cytotoxicity in leukaemia cells” (Journal of Enzyme Inhibition and Medicinal Chemistry, 2020).
“Also recorded” adds a separate entry of the source. Like-named read-outs stand apart in the source and are kept apart here.

Key:
[1] = test system: Ac-α-tubulin and Ac-histone H3; format: cell-based, human
HL-60 cells [2] = format: cell-based, human
MCF-7/ADR cells = experiment: cells; format: cell-based; details: Homo sapiens, NCI/ADR-RES, 72 h, read-out: GI50, MCF-7/ADR
H1975 cells = experiment: cells; format: cell-based; details: Homo sapiens, NCI-H1975, 72 h, read-out: GI50, H1975
HL-60 cells [3] = experiment: Cell proliferation (MTS) assay, HL-60; format: cell-based; details: Homo sapiens, read-out: GI50 values, HL-60
A549 cells = experiment: cells; format: cell-based; details: Homo sapiens, A549, 72 h, read-out: GI50, A549
MCF-7 cells = experiment: Cell proliferation (MTS) assay, MCF-7; format: cell-based; details: Homo sapiens, MCF7, 72 h, read-out: GI50 values, MCF-7
HL-60 cells [4] = format: cell-based, human; remark: listed apart in the source
[5] = test system: PARP, caspase 3, and caspase 8; format: cell-based, human
U-937 cells = experiment: Cell proliferation (MTS) assay, U-937; format: cell-based; details: Homo sapiens, read-out: GI50 values, U-937
A2780 cells = experiment: Cell proliferation (MTS) assay, A2780; format: cell-based; details: Homo sapiens, read-out: GI50 values, A2780
MDA-MB-231 cells = experiment: Cell proliferation (MTS) assay, MDA-MB-231; format: cell-based; details: Homo sapiens, read-out: GI50 values, MDA-MB-231
U266 cells = experiment: cells; format: cell-based; details: Homo sapiens, U-266, 72 h, read-out: GI50, U266
[6] = HL-60, 3 days (72 h), MTS assay
[7] = U-937, 3 days (72 h), MTS assay
[8] = A2780, 3 days (72 h), MTS assay
[9] = MDA-MB-231, 3 days (72 h), MTS assay

| Compound | acetylation of α-tubulin and histone H3 [1] | % DNA content in the tail (HL-60 cells [2]) [%] | GI50 (MCF-7/ADR cells) [µM] | GI50 (H1975 cells) [µM] | GI50 (HL-60 cells [3]; HL-60, 72 h) [µM] | GI50 (A549 cells) [µM] | GI50 (MCF-7 cells) [µM] | G2/M fraction (HL-60 cells [4]) [%] | concentration required to induce the cleavage of PARP, caspase 3, and caspase 8 [5] [µM] | GI50 (U-937 cells; U-937, 72 h) [µM] | GI50 (A2780 cells; A2780, 72 h) [µM] | GI50 (MDA-MB-231 cells; MDA-MB-231, 72 h) [µM] | GI50 (U266 cells) [µM] | GI50 (HL-60 cells [3]; [6]) [µM] | GI50 (MCF-7 cells; 3 days, MTS assay) [µM] | GI50 (U-937 cells; [7]) [µM] | GI50 (A2780 cells; [8]) [µM] | GI50 (MDA-MB-231 cells; [9]) [µM] |
| --- | --- | --- | --- | --- | --- | --- | --- | --- | --- | --- | --- | --- | --- | --- | --- | --- | --- | --- |
| O=C(O)CCCc1ccc(N(CCCl)CCCl)cc1 [Chlorambucil] | failed to induce the acetylation of α-tubulin and histone H3; also recorded: little acetylation of α-tubulin and histone H3 | 2.1 | > 100 | > 100 | 21.1 | > 100 | 393 | 32.2 | 30 | 37.7 | > 100 | > 100 | > 100 | – | – | – | – | – |
| Nc1ccc(CCCC(=O)NO)cc1 [Compound 7, 4–(4-Aminophenyl)-N-hydroxybutanamide] | – | – | – | – | – | – | – | – | – | – | – | – | – | 60.5 | 393 | 93 | > 100 | > 100 |
| CCN(CC)c1ccc(CCCC(=O)NO)cc1 [Compound 8a, 4–(4-(Diethylamino)phenyl)-N-hydroxybutanamide] | – | – | – | – | – | – | – | – | – | – | – | – | – | 70.3 | 282 | > 100 | 81 | 85.1 |
| CCCN(CCC)c1ccc(CCCC(=O)NO)cc1 [Compound 8b, 4–(4-(Dipropylamino)phenyl)-N-hydroxybutanamide] | – | – | – | – | – | – | – | – | – | – | – | – | – | 34.4 | 37.8 | 40.2 | 7.79 | 66.8 |
